Test results as given in ChEMBL document CHEMBL1137533, “Activity of 7-methyljuglone derivatives against Mycobacterium tuberculosis and as subversive substrates for mycothiol disulfide reductase” (Bioorg Med Chem, 2007).
Converted amounts (≈) assume the structure as drawn. The source made the active and inactive calls. The rule behind the calls is not given here.

What was measured:
[1] = system: Mycobacterium tuberculosis; experiment: Antimycobacterial activity against Mycobacterium tuberculosis H37Rv; assay type: functional
Vero = experiment: Cytotoxicity against Vero cells after 48 hrs by XTT method; assay type: cell-based; details: Chlorocebus sabaeus
[2] = Selectivity index, ratio of IC50 for Vero cells to MIC of Mycobacterial tuberculosis H37Rv; assay type: functional
[3] = system: Mycobacterium tuberculosis; experiment: Activity of Mycobacterium tuberculosis mycothiol reductase
[4] = system: Mycobacterium tuberculosis; experiment: Ratio of kcat to Km of Mycobacterium tuberculosis mycothiol reductase; design: unit not given here
[5] = system: Mycobacterium tuberculosis; experiment: Antimycobacterial activity against Mycobacterium tuberculosis H37Rv at MIC; assay type: functional
[6] = system: Mycobacterium tuberculosis; experiment: Activity of Mycobacterium tuberculosis mycothiol reductase upto 800 uM

Row | SMILES | MIC [1] | IC50 (Vero) | Ratio [2] | Km [3] | kcat [3] | kcat/Km [4] | Activity [5] | Activity [6]
1 | Cc1ccc2c(c1O)C(=O)C=CC2=O | 5 µg/mL (≈ 26.6 µM) | 3.1 µg/mL (≈ 16.5 µM) | 0.63 |  |  |  |  | 
2 | CC(=O)Oc1cc(C)cc2c1C(=O)C=CC2=O | 2.5 µg/mL (≈ 10.9 µM) | 6 µg/mL (≈ 26.1 µM) | 2.4 | 389 µM | 3.17 s⁻¹ | 8.15e+07 | 99.9% | 
3 | CC(=O)Oc1cc(C)c(Cl)c2c1C(=O)C=CC2=O | 10 µg/mL (≈ 37.8 µM) | 6.3 µg/mL (≈ 23.8 µM) | 0.63 |  |  |  | 99.9% | 
4 | COc1cc(C)cc2c1C(=O)C=CC2=O | 15 µg/mL (≈ 74.2 µM) | 5.8 µg/mL (≈ 28.7 µM) | 0.39 |  |  |  | 99.9% | 
5 | CC(=O)Oc1cc(OC(C)=O)c2c(OC(C)=O)c(C)cc(Cl)c2c1OC(C)=O | > 20 µg/mL | 149 µg/mL (≈ 365 µM) |  |  |  |  | 99.9% | 
6 | COc1cc(C)c(Cl)c2c1C(=O)C=CC2=O | > 20 µg/mL | 7.7 µg/mL (≈ 32.5 µM) |  | 435 µM | 0.142 s⁻¹ | 3.3e+06 | 99.9% | 
7 | CCOc1c(C)cc(Cl)c2c1C(=O)C=CC2=O | 15 µg/mL (≈ 59.8 µM) | 12.5 µg/mL (≈ 49.9 µM) | 0.83 |  |  |  | 99.9% | 
8 | CCOc1cc(C)cc2c1C(=O)C=CC2=O | 15 µg/mL (≈ 69.4 µM) | 6.3 µg/mL (≈ 29.1 µM) | 0.42 |  |  |  | 99.9% | 
9 | CCOc1cc(C)c(Cl)c2c1C(=O)C=CC2=O | > 20 µg/mL | 36.1 µg/mL (≈ 144 µM) |  |  |  |  | 99.9% | 
10 | CC(=O)Oc1cc(OC(C)=O)c2c(OC(C)=O)cc(C)cc2c1OC(C)=O | > 20 µg/mL | 17.2 µg/mL (≈ 45.9 µM) |  |  |  |  | 99.9% | 
11 | COc1c(C)cc(Cl)c2c1C(=O)C=CC2=O | 15 µg/mL (≈ 63.4 µM) | 8 µg/mL (≈ 33.8 µM) | 0.54 |  |  |  | 99.9% | 
12 | CC(=O)Oc1cc(OC(C)=O)c2c(OC(C)=O)cc(C)c(Cl)c2c1OC(C)=O | > 20 µg/mL | 27.8 µg/mL (≈ 68 µM) |  |  |  |  | 99.9% | 
13 | CC(=O)Oc1c(C)cc(Cl)c2c1C(=O)C=CC2=O | 10 µg/mL (≈ 37.8 µM) | 21.1 µg/mL (≈ 79.7 µM) | 2.1 |  |  |  | 99.9% | 
14 | Cc1cc(O)c2c(c1)C(=O)C(O)=CC2=O | 5 µg/mL (≈ 24.5 µM) | 3.1 µg/mL (≈ 15.2 µM) | 0.63 |  |  |  | 99.9% | 
15 | Cc1cc(O)c2c(c1Br)C(=O)C=CC2=O [5-BROMO-8-HYDROXY-6-METHYLNAPHTHALENE-1,4-DIONE] | 5 µg/mL (≈ 18.7 µM) | 3.6 µg/mL (≈ 13.5 µM) | 0.71 |  |  |  |  | 
16 | Cc1cc(O)c2c(c1Cl)C(=O)C=CC2=O [5-CHLORO-8-HYDROXY-6-METHYLNAPHTHALENE-1,4-DIONE] | 10 µg/mL (≈ 44.9 µM) | 2.5 µg/mL (≈ 11.2 µM) | 0.25 | 233 µM | 0.212 s⁻¹ | 9.1e+06 |  | 
17 | Cc1cc(O)c2c(c1F)C(=O)C=CC2=O [5-FLUORO-8-HYDROXY-6-METHYLNAPHTHALENE-1,4-DIONE] | 10 µg/mL (≈ 48.5 µM) | 7.6 µg/mL (≈ 36.9 µM) | 0.76 |  |  |  |  | 
18 | Cc1cc(Cl)c2c(c1O)C(=O)C=CC2=O [8-CHLORO-5-HYDROXY-6-METHYLNAPHTHALENE-1,4-DIONE] | 5 µg/mL (≈ 22.5 µM) | 4.6 µg/mL (≈ 20.7 µM) | 0.92 | 36 µM | 0.592 s⁻¹ | 1.64e+08 | 99.9% | 
19 | Cc1cc(O)c2c(c1)C(=O)C(c1c(C)cc3c(c1O)C(=O)C=CC3=O)=CC2=O [DIOSPYRIN] | 8 µg/mL (≈ 21.4 µM) | 17.8 µg/mL (≈ 47.5 µM) | 2.2 | 33 µM | 0.118 s⁻¹ | 3.57e+07 |  | 
20 | CC[C@@H](CO)NCCN[C@@H](CC)CO [ETHAMBUTOL] | 2 µg/mL (≈ 9.79 µM) | > 150 µg/mL | >75 |  |  |  | 99.9% | 
21 | NNC(=O)c1ccncc1 [ISONIAZID] | 0.2 µg/mL (≈ 1.46 µM) | > 200 µg/mL | >1000 |  |  |  | 99.9% | 
22 | CC1=CC(=O)c2ccccc2C1=O [MENADIONE] | 5 µg/mL (≈ 29 µM) | 6.5 µg/mL (≈ 37.8 µM) | 1.3 | 483 µM | 0.732 s⁻¹ | 1.52e+07 | 99.9% | 
23 | O=C1C=CC(=O)c2ccccc21 [NAPHTHOQUINONE] | 1 µg/mL (≈ 6.32 µM) | 1.2 µg/mL (≈ 7.59 µM) | 1.19 | 324 µM | 1.09 s⁻¹ | 3.36e+07 | 99.9% | 
24 | Cc1cc(O)c2c(c1)C(=O)C=C(c1c(C)cc(O)c3c1C(=O)C=CC3=O)C2=O [NEODIOSPYRIN] | 10 µg/mL (≈ 26.7 µM) | 32 µg/mL (≈ 85.5 µM) | 3.2 | 63 µM | 0.308 s⁻¹ | 4.88e+07 |  | 
25 | Cc1cc(O)c2c(c1)C(=O)C=CC2=O [RAMENTACEONE] | 0.5 µg/mL (≈ 2.66 µM) | 15.1 µg/mL (≈ 80.2 µM) | 30.22 | 254 µM | 2.37 s⁻¹ | 9.31e+07 |  | 
26 | Cc1cc(O)c2c(c1)[C@H](O)CCC2=O [SHINANOLONE] | > 100 µg/mL |  |  |  |  |  | 99.9% | inactive
27 | CN[C@@H]1[C@H](O[C@H]2[C@H](O[C@H]3[C@H](O)[C@@H](O)[C@H](N=C(N)N)[C@@H](O)[C@@H]3N=C(N)N)O[C@@H](C)[C@]2(O)C=O)O[C@@H](CO)[C@H](O)[C@H]1O [STREPTOMYCIN] | 1 µg/mL (≈ 1.72 µM) | > 120 µg/mL | >120 |  |  |  | 99.9% | 
